According to US20110200556A1, “CHEMOPREVENTION OF HEAD AND NECK SQUAMOUS CELL CARCINOMAS” (THE UNITED STATES OF AMERICA, AS REPRESENTED BY TH E …, priority 2008, published 2011):

Tested on: tongue and oral mucosa
Test: Oral chemical carcinogenesis by 4NQO in the drinking water
Type: in vivo, C57B1/6 mice
Conditions: 4NQO 50 μg/ml in drinking water, week 12
Experimental: Water was changed weekly.
Methods: Animal studies were carried out according to NIH-approved protocols, in compliance with the Guide for the Care and Use of Laboratory Animals. Female C57B1/6 mice (Harlan Sprague-Dawley, National Cancer Institute at Frederick, Md., USA) 4-6 weeks old and weighing 18 to 20 g, were housed in appropriate sterile filter-capped cages, and fed and given water ad libitum. […] All animals underwent a bi-weekly full oral cavity examination under anesthesia (2-5% Isoflurane, Baxter, Deerfield, Ill., mixed with oxygen), and any observed pathological changes were documented. Animals were euthanized either on week 16 or week 22 for tissue retrieval. Complete autopsies were performed, and tissues were immediately collected and fixed in buffered zinc-formalin (Z-fix, Anatech, Mich.) at room temperature for 12 h. The tissues were then transferred to alcohol 70%, processed for paraffin embedding for histopathological diagnosis and further studies. […] Animals were monitored daily for general behavioral abnormalities, signs of toxicity, illness or discomfort. Animals were euthanized on week 22, and tissue retrieval was performed as described above.
Water was replaced weekly, and mice were monitored prior to each water change. […] All animals underwent a bi-weekly full oral cavity examination, and any pathological changes were documented. […]

O=[N+]([O-])c1cc[n+]([O-])c2ccccc12 [4NQO, 4-nitroquinoline-1 oxide]
mice that developed tumors in the tongue and other areas of the oral mucosa: around 50%
